From paper PMC10121968, “Fosgonimeton, a Novel Positive Modulator of the HGF/MET System, Promotes Neurotrophic and Procognitive Effects in Models of Dementia” (Neurotherapeutics, 2022)
Non-standard residues stand in square brackets, D forms with d. Residues, ends and D or L forms follow the SMILES beside them. *: point of attachment. pY = N[C@@H](Cc1ccc(OP(=O)(O)O)cc1)C(=O)O; Hexanoyl = CCCCCC(=O)*; Ahx = NCCCCCC(=O)O

Key:
[1] = test system: LPS-induced neuroinflammatory mouse model; test: LPS-induced cognitive impairment, T-maze spontaneous alternation; type: in vivo; conditions: 14 days
Method: All animal manipulations were conducted in accordance with the European Directive 2010/63/UE published in the French decree 2013–118 of February 1, 2013, and approved by an independent government-accredited ethics committee (CEEA 35, NEUROFIT, France). Animals for the study consisted of 90 four- to five-week-old CD-1 mice (Janvier, Le Genest St Isle, France). Mice were group-housed and maintained in a room with controlled temperature (21–22 °C) and reversed 12/12 light/dark cycle. The animals had access to food and water ad libitum.
Mice were sorted into the following experimental groups: saline + vehicle (control), LPS + vehicle (LPS), LPS + 0.1 mg/kg memantine, and LPS + fosgonimeton at 0.125, 0.25, 0.5, 1, or 1.25 mg/kg (LPS + fosgo). On day 0 of the study, all groups received either a single intraperitoneal injection of saline or LPS (0.25 mg/kg). During days 1–14, animals received memantine or fosgonimeton treatment once daily. On day 14, 60 min after the last dosing with test compounds or vehicle, mice were assessed for performance on the T-maze spontaneous alternation task.
The T-maze apparatus was made of gray Plexiglas with a main stem (55 cm × 10 cm × 20 cm) and 2 arms (30 cm × 10 cm × 20 cm) positioned at a 90° angle relative to the main stem. A start box (15 cm × 10 cm) was separated from the main stem by a guillotine door. Horizontal doors were also provided to close specific arms during the “forced-choice” alternation task.
The experimental protocol consisted of a single session, which started with 1 forced-choice trial, followed by 14 “free-choice” trials. In the forced-choice trial, the animal was confined for 5 s in the start arm and was then released while either the left or the right goal arm was blocked by a horizontal door. Animals were allowed to explore the maze, eventually entering the open goal arm and afterward returning to the start position. […] The animal was considered to have entered an arm if it placed all 4 paws in the arm. The session was terminated and the animal was removed from the maze after 14 free-choice trials were performed or 10 min elapsed, whichever occurred first. The apparatus was cleaned between each animal run using 70% ethanol. During the trials, animal handling and the visibility of the operator were controlled to minimize interference during testing.
The percentage of alternations over the 14 free-choice trials was determined for each mouse and was used as an index of working memory performance. This percentage was defined as entry into a different goal arm of the T maze over successive trials (e.g., left–right–left–right) and was calculated using the formula: %Alternations=Number of Alternations/14×100
Additionally, percentage of recovery was calculated by normalizing the control group to 100% and the LPS group to 0% and calculating the respective relative response for each individual animal, as follows: %Recovery=(Individual%alternation-meanLPS%alternation)/(Meancontrol%alternation-meanLPS%alternation)
Data were assessed for normality (Shapiro–Wilk) and homoscedasticity (Brown-Forsythe). One-way ANOVA was performed on the data for spontaneous alternations. Dunnett multiple comparison test was used for post hoc pairwise comparisons with the LPS group. The Kruskal–Wallis test was used for percentage of recovery with Dunn’s multiple comparison post hoc test. A value of p < 0.05 was considered to represent a statistically significant difference.

Fosgonimeton PK in mice = type: in vivo, mouse; conditions: 0.75 mg/kg SC, first tested time point
Method: Three male BALBc mice were treated with 0.75 mg/kg fosgonimeton in saline with 0.1% glycine via SC injection. Blood was serially collected at 0.25, 0.5, 1, 2, and 4 h after dosing. Plasma was obtained by centrifugation with 2% disodium EDTA as an anticoagulant. Plasma samples were precipitated with acetonitrile containing internal standard, and the concentration of fosgonimeton and fosgo-AM was determined by LC/MS/MS.

[2] = Fosgonimeton CNS distribution in rats; type: in vivo, rat; conditions: 12 mg/kg fosgonimeton SC, all brain regions
Method: Three male Sprague Dawley rats per time point were given 12 mg/kg fosgonimeton via SC injection. At 0.16, 0.5, and 1 h after dosing, animals were humanely killed and perfused with chilled saline. Brains were collected and dissected into the following brain regions: whole brain, striatum, olfactory bulb, hippocampus, cerebellum, cerebral cortex, and brainstem. Brain regions were homogenized and the exposures of fosgonimeton and fosgo-AM were determined by LC/MS/MS.

[3] = Plasma PK in rats after SC injection; type: in vivo, rat; conditions: SC
Method: Four male rats were treated with 10 mg/kg fosgo-AM in DMSO via SC injection. Blood was serially collected at 0.08, 0.25, 0.5, 1, 2, and 4 h after dosing. Plasma was obtained by centrifugation with 2% disodium ethylenediaminetetraacetic acid (EDTA) as an anticoagulant. Plasma samples were precipitated with acetonitrile containing internal standard, and the concentration of fosgo-AM was determined by LC/MS/MS.
This study was conducted as described in the “Fosgo-AM PK in Rats” section with the following changes: animals were given 12 mg/kg fosgonimeton in saline with 0.1% glycine via SC injection, and a dose-linear correction was applied to normalize the dose to 10 mg/kg for comparison with the fosgo-AM study. Sample concentrations of both fosgonimeton and fosgo-AM were determined.

[4] = Fosgonimeton solubility (filtration/HPLC in PBS); type: physicochemical; conditions: osmolarity-corrected PBS
Method: Fosgonimeton solubility studies were contracted to GVK Biosciences, Hyderabad, India. Stocks of fosgonimeton were prepared in duplicate at several concentrations in osmolarity-corrected PBS and were vortexed to dissolve into solution. The solutions were filtered through a 0.45-µm filter followed by a 0.22-µm filter to remove insoluble particulates. Pre- and postfiltration aliquots were collected, and their concentration was determined via high-performance liquid chromatography.

MDCK cells = test: MDCK cell scatter behavior assay; type: cell-based, canine; conditions: HGF 40 ng/mL, 24 h
Method: Madin-Darby canine kidney (MDCK, ATCC CCL-34) cells were grown at 37 °C, 5% CO2 in Eagle’s Minimum Essential Medium (EMEM) + 10% FBS in T-75 flasks until 80% confluent. Cells were then plated at 1400 cells/well in black-walled, clear-bottom 96-well plates and grown at 37 °C under 5% CO2 for 24 h. Growth media were replaced by serum-free media for 2 h before treatment. Treatments containing HGF and fosgo-AM were made in serum-free media and applied in quintuplicates for 24 h at 37 °C under 5% CO2. Cells were then fixed in chilled 100% EtOH at 4 °C for 20 min and then stained with wheat germ agglutinin conjugated to CF488 (WGA488, Biotium, 29,022–1, Fremont, California) at […] in phosphate-buffered saline (PBS) for 30 min at RT to visualize whole-cell surfaces. Cultures were then imaged with an iCys instrument (iCyte, Thor Labs, Newton, New Jersey) and analyzed with the ImageJ (National Institutes of Health) particle count feature. Scattering behavior was quantified by normalizing particle counts against total stained area. […] Data were assessed for normality (Shapiro–Wilk) and homoscedasticity (Brown-Forsythe). The statistical difference from HGF alone was determined by one-way ANOVA with Dunnett’s multiple comparison post-test with an alpha value of 0.05 (Prism, GraphPad).

ERK (Thr202/Tyr204) = test: Phospho-ERK HTRF assay in HEK293 cells; type: cell-based, human; conditions: HEK293, HGF 10 ng/mL, vs no HGF treatment
Text: To determine phosphoactivation status of the intracellular signaling molecules ERK (Thr202/Tyr204) or AKT (Ser473), we used homogenous time-resolved fluorescence (HTRF) kits to assess phosphorylation status based on the energy transfer between donor and acceptor phospho-ERK (pERK) or phospho-AKT (pAKT) antibodies. HTRF kit processing for pERK (Phospho-ERK [Thr202/Tyr204] cellular Advanced kit, #64AERPEG, Cisbio, Codolet, France) and pAKT (Phospho-AKT [Ser473] cellular kit, #64AKSPEG, Cisbio, Codolet, France) were carried out per manufacturer instructions. In brief, HEK293 cells were grown at 37 °C, 5% CO2 in DMEM + 10% FBS until approximately 80% confluent. Cells were seeded in polystyrene-treated 96-well cell culture plates at approximately 50,000 cells/well and cultured overnight in 50 µL serum-free growth media. […] Fluorescence emission at 2 different wavelengths (665 nm and 620 nm) were measured on an Envision plate reader (PerkinElmer, Waltham, Massachusetts), and the HTRF ratio of the acceptor and donor emission signals for each well was calculated as follows: HTRF ratio = (665 nm/620 nm) × 10,000. […] Data were assessed for normality (Shapiro–Wilk) and homoscedasticity (Brown-Forsythe). Statistical significance was determined by one-way analysis of variance (ANOVA) with Tukey’s multiple comparison post-test. […]

[5] = test system: primary rat hippocampal neurons; test: Neurite outgrowth assay (beta-III tubulin staining); type: cell-based; conditions: HGF alone 5 ng/mL, 4 days, vs vehicle
Method: On day 0, rat hippocampal neurons from newborn pups were isolated and cultured in brain neuronal culture medium (neurobasal medium supplemented with 5% FBS, 2% B-27 supplement, and 0.003% gentamycin) at 37 °C under 5% CO2. At 1 day in vitro (DIV1), cells were transferred to a poly-D-lysine–coated 24-well plate at approximately 10,000 cells/well. Cells were then grown in […] of serum-free medium and treated with the following: 0.1% dimethyl sulfoxide (DMSO; vehicle), 10 nM dihydrotestosterone (positive control), 10 nM fosgo-AM, 1 nM fosgo-AM, 5 ng/ml HGF, or 5 ng/ml HGF + 1 nM fosgo-AM. All treatments contained a final concentration of 0.1% DMSO. For the neurite outgrowth assay, treatment media were refreshed on DIV3, and cells were processed for analysis on DIV4. For the synaptogenesis assay, treatment media were refreshed on DIV3 and DIV6, and cells were processed for analysis on DIV8. Processing for both the neurite outgrowth and the synaptogenesis assays was performed as follows: media were removed, and cells were fixed with 100% methanol for 20 min at RT before methanol was aspirated and each well was washed twice with Dulbecco’s phosphate-buffered saline (DPBS). Cells were permeabilized using 0.02% […] (ThermoFisher, Waltham, Massachusetts) in DPBS for 2 min at RT without shaking, and plates were blocked with 5% bovine serum albumin (BSA) in DPBS for 1 h at RT. Plates were then incubated overnight at 4 °C with gentle shaking with use of beta-III tubulin antibody (ab201740; Abcam, Boston, Massachusetts) to assess neurite outgrowth or with use of 1:500 rabbit anti–synaptobrevin-II antibody (Synaptic Systems, cat# 104 202, Göttingen, Germany) to assess synaptogenesis. After overnight incubation, plates were washed 3 times with DPBS and incubated for 1 h at RT with use of anti–rabbit immunoglobulin G–secondary antibody conjugated to Alexa Fluor 488 (Life Technologies, Carlsbad, California, 1:500). After 5 DPBS washes, coverslips were mounted on slides using fluorescent mounting medium (Golden Bridge International Labs, Bothell, Washington, cat# E19-s). Imaging was performed using the BX43 Olympus microscope driven by the standard “CellSens” software by Olympus. […] Ten images of single cells from a total of 2 assays were analyzed using NeuroJ plug-in for ImageJ to assess neurite outgrowth, as neurite length and the number of branches per neuron were counted for each cell. For the synaptogenesis assay, synaptic count (number of synapses) and synaptic strength (relative abundance of presynaptic vesicles per synapse as measured by synaptobrevin-II fluorescence intensity) were quantified for each cell. Data were assessed for normality (Shapiro–Wilk) and homoscedasticity (Brown-Forsythe). […]

Molecule: CCCCCC(=O)N[C@@H](Cc1ccc(OP(=O)(O)O)cc1)C(=O)N[C@H](C(=O)NCCCCCC(N)=O)[C@@H](C)CC [fosgonimeton] (Hexanoyl-[pY]-Ile-[Ahx]-NH2)
- percentage of recovery (spontaneous alternations) ([1]; 0.25 mg/kg SC once daily): 61.76%
- percentage of recovery (spontaneous alternations) ([1]; 0.5 mg/kg SC once daily): 79.40%
- percentage of recovery (spontaneous alternations) ([1]; 1 mg/kg SC once daily): 64.70%
- percentage of recovery (spontaneous alternations) ([1]; 1.25 mg/kg SC once daily): 64.70%
- percentage of spontaneous alternations vs LPS group ([1]; 0.25, 0.5, 1 and 1.25 mg/kg SC once daily): significantly ameliorated these deficits
- time of appearance of active compound fosgo-AM after fosgonimeton (Fosgonimeton PK in mice): ≤ 15 min
- detection in brain regions [2]: undetectable
- fold higher fosgo-AM Cmax vs equivalent direct dose of fosgo-AM [3]: ~4 fold
- systemic exposure of fosgo-AM vs equivalent direct dose of fosgo-AM [3]: higher systemic exposure
- time of appearance of active compound fosgo-AM after fosgonimeton ([3]; first tested time point): ≤ 5 min
- solubility in aqueous solutions [4]: greater than 70 mg/mL

Molecule: HGF: Recombinant HGF protein (R&D Systems), ligand of the MET receptor
- cell scattering behavior (MDCK cells): significantly increased cell scattering behavior
- pERK levels (ERK (Thr202/Tyr204)): significantly increased pERK versus no HGF treatment
- neurite length per cell [5]: no significant differences compared with vehicle

Molecule: CC12CC3CC(C)(C1)CC(N)(C3)C2 [memantine, reference compound]
- percentage of spontaneous alternations vs LPS group ([1]; 0.1 mg/kg I.P. once daily): significantly prevented LPS-induced cognitive deficits
- percentage of recovery (spontaneous alternations) ([1]; positive control, 0.1 mg/kg I.P. once daily): 76.40%
